A value given as a limit tells only on which side of the number the result lay.

The test system of one test is HT29 cells. Nature of the test: Inhibition of cell necrosis (CCK8 method), HT29 cells. The class given is cell-based, human. The following applies: for IC50: HT29, Human TNF-α/AT-406/Z-VAD-FMK, 16 hours, CCK8; for inhibitory activity against human HT29 cells: HT29 necrosis. The method, then:
(§1) In this assay example 2, under the condition of inducing programmed cell necrosis of HT29 and L929 cell lines, different concentrations of the test compounds were added to test the IC50 of the rescue effect of the test compounds on the programmed necrosis.
(§2) • Compounds: dissolved in DMSO to make a 10 mM solution; • TNF-α: initial concentration of 100 µg/mL; • Z-VAD-FMK: dissolved in DMSO to make a 10 mM solution; • AT-406: dissolved in DMSO to make a 10 mM solution. • Cell lines: HT29 cells were cultured in McCoy's 5A medium containing 10% fetal bovine serum, 100 U/mL penicillin, and 100 µg/mL streptomycin, and L929 cells were cultured in MEM medium containing 10% horse serum, 100 U/mL penicillin, and 100 µg/mL streptomycin.
(§3) 1. The test compound was dissolved in DMSO to form a stock solution, and a gradient dilution was performed; the solution was then diluted with the corresponding culture medium to obtain a solution with 10 times the working concentration.
(§4) 2. The cells in the logarithmic growth phase were diluted with culture medium to a specific cell concentration. 80 µL of the cell suspension was added to a 96-well plate, so that the cell densities of HT29 and L929 were 1.2*10^4 cells/well and 2.0*10^4 cells/well, respectively. The plate was cultured in a 37° C., 5% carbon dioxide incubator overnight.
(§5) 3. […] of the compound solution was added to each well of the 96-well plate inoculated with cells. The compounds to be tested were serially diluted 4-fold to obtain 9 concentrations in duplicate, starting from a maximum concentration of 10 μM. At the same time, a control group without compound addition was set up.
(§6) 4. After the cells were cultured for another 30 minutes, 10 μL of the inducer mixture was added to each well. The final concentrations of Human TNF-α, AT-406 and Z-VAD-FMK in HT29 cells were 20 ng/mL, […] and 20 μM, respectively; and the final concentrations of Murine TNF-α and Z-VAD-FMK in L929 cells were 20 ng/mL and 25 μM, respectively.
(§7) 5. The 96-well plate in which compounds and inducer were added was placed in a 37° C., 5% carbon dioxide incubator for further culture, wherein HT29 cells were cultured for 16 hours and L929 cells were cultured for 4-8 hours. Cell viability was detected by CCK8. GraphPad Prism software was used to prepare a dose-effect curve and IC50 was calculated.
On the technique in general: Tetrazolium dyes change colour on reduction, which living cells bring about.

In a further test the test system is L929 cells. As to the kind of experiment: Inhibition of cell necrosis (CCK8 method), L929 cells. To be noted: for IC50: 4-8 hours, CCK8; for inhibitory activity against mouse L929 cells: L929 necrosis. In kind it is cell-based, mouse. The procedure:
as §1, §2, §3, §4, §5, §6, §7

[1] abbreviates: Mus musculus, L929, L929, Murine TNF-α/Z-VAD-FMK.

As to `O=C(C1CCN(c2cc(-c3cc(OCC4(O)CCC4)ccc3F)ccn2)CC1)N1N=CCC1c1cc(F)cc(F)c1` (stereo not drawn) [Example 46, (5-(3,5-difluorophenyl)-4,5-dihydro-1H-pyrazol-1-yl)(1-(4-(2-fluoro-5-((1-hydroxycyclobutyl)methoxy)phenyl)pyridin-2-yl)piperidin-4-yl)methanone], the IC50 is at most 10 nM in the test on HT29 cells (Homo sapiens, HT-29, 16 h) and 10 to 50 nM with L929 cells (setting [1]).

Consider `CC(C)(O)COc1ccc(F)c(-c2ccnc(N3CCC(C(=O)N4N=CCC4c4cc(F)cc(F)c4)CC3)c2)c1` (stereo not drawn) [Example 47, (5-(3,5-difluorophenyl)-4,5-dihydro-1H-pyrazol-1-yl-5-deuterium)(1-(4-(2-fluoro-5-(2-hydroxy-2-methylpropoxy)phenyl)pyridin-2-yl)piperidin-4-yl)methanone], for which the IC50 with HT29 cells fell in the range of 10 to 50 nM; in the test on L929 cells (L929, Murine TNF-α/Z-VAD-FMK) it was 10 to 50 nM.

`NC(=O)c1ccc(N2CCC(C(=O)N3N=CCC3c3ccccc3)CC2)nc1` (stereo not drawn) [compound 1, reference compound]: the “inhibitory activity against human HT29 cells” value in the test with HT29 cells is “significantly inferior to those of the compounds of the present application”. The IC50 is 400 to 4000 nM with HT29 cells (Homo sapiens, HT-29, 16 h) and over 4000 nM with L929 cells (setting [1]). Further, in the test with L929 cells, the “inhibitory activity against mouse L929 cells” value is reported as “almost no inhibitory activities”.

`O=C(C1CCN(c2nccc(-c3ccccc3)n2)CC1)N1N=CCC1c1ccccc1` (stereo not drawn) [compound 2, reference compound]: in the test on HT29 cells, the “inhibitory activity against human HT29 cells” value is listed as “significantly inferior to those of the compounds of the present application”. In addition, the IC50 with HT29 cells (Homo sapiens, HT-29, 16 h) was 400 to 4000 nM; in the test with L929 cells (setting [1]) it was over 4000 nM. For the same molecule, in the test with L929 cells, the “inhibitory activity against mouse L929 cells” value is on record as “almost no inhibitory activities”.

As a reminder, the IC50 is the concentration that inhibits the measured activity by half. Read a high IC50 as lower potency.

(Values after US20250074892A1, “CARBONYL BRIDGED HETEROCYCLIC COMPOUND, AND COMPOSITION AND APPLICATION THEREOF” (BEIJING SCITECH-MQ PHARMACEUTICALS LIMITED, priority 2022, published 2025).)
